{"source": "patent US20200085058A1", "about": "“SELECTIVE HERBICIDES BASED ON SUBSTITUTED THIEN-3-YL-SULPHONYLAMINO(THIO)CARBONYLTRIAZOLIN(THI)ONES AND SAFENERS” (Bayer CropScience Aktiengesellschaft, priority 2001, published 2020)", "format_in_all_cases": "in vivo", "key": {"winter barley [1]": {"tested_on": "winter barley", "test": "Example A-5 post-emergence test/greenhouse, crop damage", "experimental": "(§1) The active compound or safener components are in each case dissolved in a few ml (generally 2-3 ml) of solvent (generally acetone or N,N-dimethyl-formamide), and the solutions are combined and then—if appropriate after addition of an emulsifier—diluted with water to the desired concentration. In general, an aqueous spray liquor was prepared using 0.1% of the additive Renex-36.\n(§2) The test plants are grown under controlled conditions (temperature, light, atmospheric humidity) in a greenhouse. The test plants are sprayed when they have reached a height of 5-15 cm. The concentration of the spray liquor is chosen such that the particular amounts of active compound desired are applied in 500 l of water/ha.\n(§3) After spraying, the pots with the test plants are kept in a greenhouse chamber under controlled conditions (temperature, light, atmospheric humidity) until the test has ended. About three weeks after the application, the degree of damage to the crop plants is rated in % damage in comparison to the development of the untreated control.\n(§4) The figures denote: • 0%=no damage (like untreated control) • 100%=total destruction/damage\n(§5) Mefenpyr-diethyl was used as 100 EC and the compound of Ex. No. I-2 was used as 10 WP."}, "winter wheat [2]": {"tested_on": "winter wheat", "test": "Example A-5 post-emergence test/greenhouse, crop damage", "experimental": "as §1, §2, §3, §4, §5"}, "maize cv. \"Pioneer\"": {"tested_on": "maize cv. \"Pioneer\"", "test": "Example A post-emergence test/greenhouse, crop damage, 0.1% Renex-36", "details": "10 g of a.i./ha; Table A1; about three weeks after application", "experimental": "The active compound or safener components are in each case dissolved in a few ml (generally 2-3 ml) of solvent (generally acetone or N,N-dimethyl-formamide), and the solutions are combined and then—if appropriate after addition of an emulsifier—diluted with water to the desired concentration. […] The test plants are grown under controlled conditions (temperature, light, atmospheric humidity) in a greenhouse. […] The concentration of the spray liquor is chosen such that the particular amounts of active compound desired are applied in 500 l of water/ha. After spraying, the pots with the test plants are kept in a greenhouse chamber under controlled conditions (temperature, light, atmospheric humidity) until the test has ended. About three weeks after the application, the degree of damage to the crop plants is rated in % damage in comparison to the development of the untreated control. […] Active compounds, application rates, test plants and results are shown in the tables below, the terms being used in the tables being as defined below: • maize=maize cv. “Pioneer” • a.i.=active ingredient=active compound/safener"}, "[3]": {"tested_on": "maize of the cultivar \"Prinz\"", "test": "Example A-3 post-emergence test/greenhouse, crop damage, Maize 1", "details": "7 days after the application, Table A-3-1", "experimental": "as §1, §2\n(§6) After spraying, the pots with the test plants are kept in a greenhouse chamber under controlled conditions (temperature, light, atmospheric humidity) until the test has ended. […]\nas §4\n(§7) The compound I-2 was used as 10 WP. In each case, Marlipal® was added in an amount of 500 ml/ha.\n(§8) Evaluation was carried out as early as 7 days after the application. • Maize 1=maize of the cultivar “Prinz” • Maize 2=maize of the cultivar “Pioneer” • Maize 3=maize of the cultivar “LIXIS”"}, "[4]": {"tested_on": "maize of the cultivar \"Pioneer\"", "test": "Example A-3 post-emergence test/greenhouse, crop damage, Maize 2", "details": "7 days after the application, Table A-3-2", "experimental": "as §1, §2, §6, §4, §7, §8"}, "[5]": {"tested_on": "maize of the cultivar \"LIXIS\"", "test": "Example A-3 post-emergence test/greenhouse, crop damage, Maize 3", "details": "7 days after the application, Table A-3-3", "experimental": "as §1, §2, §6, §4, §7, §8"}, "winter barley [6]": {"tested_on": "winter barley", "test": "Example A-2 post-emergence test/greenhouse, crop damage, 0.5% Renex-36", "experimental": "as §1, §2, §3, §4\nHere, an aqueous spray liquor comprising 0.5% of the additive Renex-36 was prepared."}, "winter barley [7]": {"tested_on": "winter barley", "test": "Example A-4 post-emergence test/greenhouse, crop damage", "details": "safener alone 50 g of a.i./ha; Table A-4-4", "experimental": "as §1, §2, §3, §4\n(§9) Mefenpyr-diethyl was used as 100 EC.\n(§10) The compounds of Ex. Nos. I-2 and I-13 were used as 10 WP."}, "winter wheat [8]": {"tested_on": "winter wheat", "test": "Example A-4 post-emergence test/greenhouse, crop damage", "details": "safener alone 50 g of a.i./ha; Table A-4-1", "experimental": "as §1, §2, §3, §4, §9, §10"}}}
{"smiles": "CCOn1c(CC)nn(C(=O)NS(=O)(=O)c2c(C(=O)OC)csc2C)c1=O", "note": "[I-17]", "values": [{"measurement": "Damage winter barley (in %)", "setting": "winter barley [1]; 8 g of a.i./ha, Table A-5-13", "result": 70, "unit": "%"}, {"measurement": "Damage winter barley (in %)", "setting": "winter barley [1]; 15 g of a.i./ha, Table A-5-13", "result": 70, "unit": "%"}, {"measurement": "Damage winter barley (in %)", "setting": "winter barley [1]; 30 g of a.i./ha, Table A-5-13", "result": 80, "unit": "%"}, {"measurement": "Damage winter wheat (in %)", "setting": "winter wheat [2]; 8 g of a.i./ha, Table A-5-7", "result": 40, "unit": "%"}, {"measurement": "Damage winter wheat (in %)", "setting": "winter wheat [2]; 15 g of a.i./ha, Table A-5-7", "result": 50, "unit": "%"}, {"measurement": "Damage winter wheat (in %)", "setting": "winter wheat [2]; 30 g of a.i./ha, Table A-5-7", "result": 70, "unit": "%"}]}
{"smiles": "COC(=O)c1csc(C)c1S(=O)(=O)NC(=O)n1nc(OC)n(C)c1=O", "note": "[I-2]", "values": [{"measurement": "Damage maize (in %)", "setting": "maize cv. \"Pioneer\"", "result": 35, "unit": "%"}, {"measurement": "Damage Maize 1 (in %)", "setting": "[3]; 8 g of a.i./ha", "result": 10, "unit": "%"}, {"measurement": "Damage Maize 1 (in %)", "setting": "[3]; 15 g of a.i./ha", "result": 20, "unit": "%"}, {"measurement": "Damage maize 2 (in %)", "setting": "[4]; 8 g of a.i./ha", "result": 10, "unit": "%"}, {"measurement": "Damage maize 2 (in %)", "setting": "[4]; 15 g of a.i./ha", "result": 20, "unit": "%"}, {"measurement": "Damage Maize 3 (in %)", "setting": "[5]; 8 g of a.i./ha", "result": 20, "unit": "%"}, {"measurement": "Damage Maize 3 (in %)", "setting": "[5]; 15 g of a.i./ha", "result": 40, "unit": "%"}]}
{"smiles": "CCOC(=O)c1csc(C)c1S(=O)(=O)NC(=O)n1nc(OC)n(C)c1=O", "note": "[I-13]", "values": [{"measurement": "Damage winter wheat (in %)", "setting": "winter wheat [2]; in vivo", "result": 50, "unit": "%"}]}
{"smiles": "COC(=O)c1csc(C)c1S(=O)(=O)[N-]C(=O)n1nc(OC)n(C)c1=O.[Na+]", "note": "[I-2, sodium salt]", "values": [{"measurement": "Damage winter barley (in %)", "setting": "winter barley [6]; 2 g of a.i./ha, Table A-2-1", "result": 50, "unit": "%"}, {"measurement": "Damage winter barley (in %)", "setting": "winter barley [6]; 4 g of a.i./ha, Table A-2-1", "result": 60, "unit": "%"}]}
{"smiles": "COCC(=O)Nc1ccc(S(=O)(=O)NC(=O)c2ccccc2OC)cc1", "note": "[Comp. No. IId-25]", "values": [{"measurement": "Damage winter barley (in %)", "setting": "winter barley [6]; safener alone 30 g of a.i./ha, Table A-2-2", "result": 0, "unit": "%"}, {"measurement": "Damage winter barley (in %)", "setting": "winter barley [6]; safener alone 100 g of a.i./ha, Table A-2-2", "result": 0, "unit": "%"}]}
{"smiles": "CCOC(=O)C1=NN(c2ccc(Cl)cc2Cl)C(C)(C(=O)OCC)C1", "note": "(centres unmarked) [mefenpyr-diethyl, diethyl 1-(2,4-dichloro-phenyl)-4,5-dihydro-5-methyl-1H-pyrazole-3,5-dicarboxylate, reference compound]", "values": [{"measurement": "Damage winter barley (in %)", "setting": "winter barley [7]", "result": 0, "unit": "%"}, {"measurement": "Damage winter wheat (in %)", "setting": "winter wheat [8]", "result": 0, "unit": "%"}, {"measurement": "Damage winter barley (in %)", "setting": "winter barley [1]; safener alone 50 g of a.i./ha, Table A-5-11", "result": 0, "unit": "%"}, {"measurement": "Damage winter wheat (in %)", "setting": "winter wheat [2]; safener alone 50 g of a.i./ha, Table A-5-1", "result": 0, "unit": "%"}, {"measurement": "Damage winter wheat (in %)", "setting": "winter wheat [2]; safener alone 50 g of a.i./ha, Table A-5-2", "result": 0, "unit": "%"}, {"measurement": "Damage winter wheat (in %)", "setting": "winter wheat [2]; safener alone 50 g of a.i./ha, Table A-5-3", "result": 0, "unit": "%"}, {"measurement": "Damage winter wheat (in %)", "setting": "winter wheat [2]; safener alone 50 g of a.i./ha, Table A-5-4", "result": 0, "unit": "%"}, {"measurement": "Damage winter wheat (in %)", "setting": "winter wheat [2]; safener alone 50 g of a.i./ha, Table A-5-5", "result": 0, "unit": "%"}]}
